Test system: human normal peripheral blood monocyte
Test: Influence of the artificially synthesized peptide on normal cell genes: coculture 7 hr, DNA chip system (Clontech), about 55000 human genes (Table 4)
Assay type: cell-based
Description: (a) The peptide obtained in Example 3 was added to a human normal peripheral blood monocyte culture system (10 to 100 μg peptide/1×10^6 to 1×10^7 monocytes), and they were cocultured for 7 hr. Then, mRNA was extracted from the monocytes and was applied to analysis for up-regulation and down-regulation in respect to about 55000 human genes by using DNA chip system (Clontech).

[1] = Enhanced Gene, Immune System Gene, Gene No. 21607, colony stimulating factor 1 (macrophage) (CSF1), transcript variant 1
[2] = Enhanced Gene, Immune System Gene, Gene No. 22100, IL5-CI0001-181000-178-f03 CI0001 Homo sapiens cDNA
[3] = Enhanced Gene, Immune System Gene, Gene No. 22254, interleukin 4 (IL4), transcript variant 1
[4] = Enhanced Gene, Immune System Gene, Gene No. 25767, tumor necrosis factor (TNF superfamily, member 2) (TNF)
[5] = Enhanced Gene, Immune System Gene, Gene No. 28615, IL3-UT0117-080301-496-D07 UT0117 Homo sapiens cDNA
[6] = Enhanced Gene, Immune System Gene, Gene No. 29703, chemokine (C—X—C motif) ligand 9 (CXCL9)
[7] = Enhanced Gene, Immune System Gene, Gene No. 45170, transforming growth factor beta 1 induced transcript 1 (TGFB1I1)
[8] = Enhanced Gene, Immune System Gene, Gene No. 51904, interleukin 1 family, member 8 (eta) (IL1F8), transcript variant 1
[9] = Enhanced Gene, Oncogene, Gene No. 2183, neuro-oncological ventral antigen 1 (NOVA1), transcript variant 1
[10] = Enhanced Gene, Oncogene, Gene No. 3642, RAB2, member RAS oncogene family (RAB2)
[11] = Enhanced Gene, Oncogene, Gene No. 3858, preferentially expressed antigen in melanoma (PRAME), transcript variant 3
[12] = Enhanced Gene, Oncogene, Gene No. 4210, RAS-like, family 11, member A (RASL11A)
[13] = Enhanced Gene, Oncogene, Gene No. 6231, breast carcinoma amplified sequence 1 (BCAS1)
[14] = Enhanced Gene, Oncogene, Gene No. 6329, mutated in colorectal cancers (MCC)
[15] = Enhanced Gene, Oncogene, Gene No. 7394, HELA CELLS COT 25-NORMALIZED cDNA clone CS0DK007YM05 3-PRIME
[16] = Enhanced Gene, Oncogene, Gene No. 8431, Ras-associated protein Rap1 (RBJ)
[17] = Enhanced Gene, Oncogene, Gene No. 8440, mab-21-like 2 (C elegans) (MAB21L2)
[18] = Enhanced Gene, Oncogene, Gene No. 14195, B-cell translocation gene 4 (BTG4)
[19] = Enhanced Gene, Oncogene, Gene No. 18829, v-myc myelocytomatosis viral related oncogene, neuroblastoma derived (avian) (MYCN)
[20] = Enhanced Gene, Oncogene, Gene No. 21713, zn87b11y5 Stratagene lung carcinoma 937218 cDNA clone IMAGE: 565149 5′
[21] = Enhanced Gene, Oncogene, Gene No. 22388, zb91f05s1 Soares_parathyroid_tumor NbHPA cDNA clone IMAGE: 320193 3′
[22] = Enhanced Gene, Oncogene, Gene No. 22675, endogenous retroviral family W, env(C7), member 1 (syncytin) (ERVWE1), mRNA
[23] = Enhanced Gene, Oncogene, Gene No. 24910, platelet-derived growth factor beta polypeptide (simian sarcoma viral (v-sis) oncogene homolog) (PDGFB), transcript variant 2
[24] = Enhanced Gene, Oncogene, Gene No. 29317, T-cell leukemia/lymphoma 6 (TCL6), transcript variant TCL6a1
[25] = Enhanced Gene, Oncogene, Gene No. 32050, disrupted in renal carcinoma 1 (DIRC1)
[26] = Enhanced Gene, Oncogene, Gene No. 34854, NEUROBLASTOMA COT 25-NORMALIZED cDNA clone CS0DC018YE24 3-PRIME
[27] = Enhanced Gene, Oncogene, Gene No. 34979, yu38e06r1 Soares ovary tumor NbHOT cDNA clone IMAGE: 236098 5′
[28] = Enhanced Gene, Oncogene, Gene No. 36631, RAB43, member RAS oncogene family (RAB43), mRNA
[29] = Enhanced Gene, Oncogene, Gene No. 37781, NEUROBLASTOMA COT 25-NORMALIZED cDNA clone CS0DC011YD03 5-PRIME
[30] = Enhanced Gene, Oncogene, Gene No. 38566, RAS protein activator like 2, mRNA (cDNA clone IMAGE: 5399841), with apparent retained intron
[31] = Enhanced Gene, Oncogene, Gene No. 46997, clone N11 NTera2D1 teratocarcinoma mRNA
[32] = Suppressed Gene, Cancer Suppressing Gene, Gene No. 8280, brain specific protein (CGI-38)
[33] = Suppressed Gene, Cancer Suppressing Gene, Gene No. 11261, breast cancer metastasis suppressor 1 (BRMS1)
[34] = Suppressed Gene, Cancer Suppressing Gene, Gene No. 11438, serologically defined breast cancer antigen 84 (SDBCAG84), transcript variant 1
[35] = Suppressed Gene, Cancer Suppressing Gene, Gene No. 30909, tumor rejection antigen (gp96) 1 (TRA1)
[36] = Suppressed Gene, Cancer Suppressing Gene, Gene No. 35687, heat shock protein 75 (TRAP1)
[37] = Suppressed Gene, Cancer Suppressing Gene, Gene No. 36334, heat shock 70 kDa protein 14 (HSPA14)
[38] = Suppressed Gene, Cancer Suppressing Gene, Gene No. 37600, AHA1, activator of heat shock 90 kDa protein ATPase homolog 1 (yeast) (AHSA1)
[39] = Suppressed Gene, Cancer Suppressing Gene, Gene No. 50395, Ras suppressor protein 1 (RSU1), transcript variant 1
[40] = Suppressed Gene, Cancer Suppressing Gene, Gene No. 52111, leukemia cell normalized cDNA library cDNA clone LEU1757_26_C2
[41] = Suppressed Gene, Immune System Gene, Gene No. 4403, programmed cell death 4 (neoplastic transformation inhibitor) (PDCD4), transcript variant 2
[42] = Suppressed Gene, Immune System Gene, Gene No. 4899, interferon (alpha, beta and omega) receptor 2 (IFNAR2), transcript variant 1
[43] = Suppressed Gene, Immune System Gene, Gene No. 8634, perform 1 (pore forming protein) (PRF1)
[44] = Suppressed Gene, Immune System Gene, Gene No. 8922, interferon induced transmembrane protein 1 (9-27) (IFITM1)
[45] = Suppressed Gene, Immune System Gene, Gene No. 9938, interleukin 17D (IL17D)
[46] = Suppressed Gene, Immune System Gene, Gene No. 10204, interferon-related developmental regulator 1 (IFRD1)
[47] = Suppressed Gene, Immune System Gene, Gene No. 10791, HLA-B associated transcript 5 (BAT5)
[48] = Suppressed Gene, Immune System Gene, Gene No. 11236, natural killer cell group 7 sequence (NKG7), mRNA
[49] = Suppressed Gene, Immune System Gene, Gene No. 11635, thymosin, beta 4, Y-linked (TMSB4Y)

Substance: the Peptide (QPQFGRRMESK; Human squamous cell carcinoma)
- Enhancement Ratio [1]: 7.233
- Expression Amount after Treatment with the Peptide [1]: 24.93
- Enhancement Ratio [2]: 1.853
- Expression Amount after Treatment with the Peptide [2]: 608.5
- Enhancement Ratio [3]: 4.547
- Expression Amount after Treatment with the Peptide [3]: 122.7
- Enhancement Ratio [4]: 37.72
- Expression Amount after Treatment with the Peptide [4]: 4927
- Enhancement Ratio [5]: 7.555
- Expression Amount after Treatment with the Peptide [5]: 20.69
- Enhancement Ratio [6]: 30.05
- Expression Amount after Treatment with the Peptide [6]: 19.83
- Enhancement Ratio (Enhanced Gene, Immune System Gene, Gene No. 30707, immunoglobulin superfamily, member 4C (IGSF4C)): 7.379
- Enhancement Ratio [7]: 2.225
- Expression Amount after Treatment with the Peptide [7]: 85.26
- Enhancement Ratio [8]: 4.932
- Expression Amount after Treatment with the Peptide [8]: 11.37
- Enhancement Ratio [9]: 2.53
- Expression Amount after Treatment with the Peptide [9]: 8.623
- Enhancement Ratio [10]: 2.032
- Expression Amount after Treatment with the Peptide [10]: 3307
- Enhancement Ratio [11]: 2.462
- Expression Amount after Treatment with the Peptide [11]: 22.62
- Enhancement Ratio [12]: 6.36
- Expression Amount after Treatment with the Peptide [12]: 393.7
- Enhancement Ratio [13]: 9.349
- Expression Amount after Treatment with the Peptide [13]: 5.453
- Enhancement Ratio [14]: 1.786
- Expression Amount after Treatment with the Peptide [14]: 67.54
- Enhancement Ratio [15]: 11.83
- Expression Amount after Treatment with the Peptide [15]: 350.3
- Enhancement Ratio [16]: 2.435
- Expression Amount after Treatment with the Peptide [16]: 18.61
- Enhancement Ratio [17]: 2.175
- Expression Amount after Treatment with the Peptide [17]: 15.71
- Enhancement Ratio [18]: 2.567
- Expression Amount after Treatment with the Peptide [18]: 7.219
- Enhancement Ratio [19]: 2.225
- Expression Amount after Treatment with the Peptide [19]: 15.32
- Enhancement Ratio [20]: 45.9
- Expression Amount after Treatment with the Peptide [20]: 7.742
- Enhancement Ratio [21]: 9.47
- Expression Amount after Treatment with the Peptide [21]: 571.2
- Enhancement Ratio [22]: 2.498
- Expression Amount after Treatment with the Peptide [22]: 204.4
- Enhancement Ratio [23]: 1.898
- Expression Amount after Treatment with the Peptide [23]: 55.05
- Enhancement Ratio [24]: 3.478
- Expression Amount after Treatment with the Peptide [24]: 10.06
- Enhancement Ratio [25]: 28.44
- Expression Amount after Treatment with the Peptide [25]: 9.806
- Enhancement Ratio [26]: 26.92
- Expression Amount after Treatment with the Peptide [26]: 1.098
- Enhancement Ratio [27]: 9.116
- Expression Amount after Treatment with the Peptide [27]: 24.17
- Enhancement Ratio [28]: 5.871
- Expression Amount after Treatment with the Peptide [28]: 417.5
- Enhancement Ratio [29]: 12.79
- Expression Amount after Treatment with the Peptide [29]: 32.41
- Enhancement Ratio [30]: 1.982
- Expression Amount after Treatment with the Peptide [30]: 14.55
- Enhancement Ratio [31]: 21.14
- Expression Amount after Treatment with the Peptide [31]: 236.2
- Expression Amount after Treatment with the Peptide [32]: 9
- Suppression Ratio [32]: 84.27
- Expression Amount after Treatment with the Peptide [33]: 6.257
- Suppression Ratio [33]: 60.59
- Expression Amount after Treatment with the Peptide [34]: 14.74
- Suppression Ratio [34]: 81.87
- Expression Amount after Treatment with the Peptide [35]: 11.47
- Suppression Ratio [35]: 86.08
- Expression Amount after Treatment with the Peptide [36]: 0.2252
- Suppression Ratio [36]: 461.4
- Expression Amount after Treatment with the Peptide [37]: 2.08
- Suppression Ratio [37]: 164.2
- Expression Amount after Treatment with the Peptide [38]: 8.429
- Suppression Ratio [38]: 116.6
- Expression Amount after Treatment with the Peptide [39]: 8.763
- Suppression Ratio [39]: 53.66
- Expression Amount after Treatment with the Peptide [40]: 13.6
- Suppression Ratio [40]: 43.65
- Expression Amount after Treatment with the Peptide [41]: 21.97
- Suppression Ratio [41]: 40.6
- Expression Amount after Treatment with the Peptide [42]: 4.5
- Suppression Ratio [42]: 119.2
- Expression Amount after Treatment with the Peptide [43]: 10.2
- Suppression Ratio [43]: 92.95
- Expression Amount after Treatment with the Peptide [44]: 110.9
- Suppression Ratio [44]: 98.91
- Expression Amount after Treatment with the Peptide [45]: 0.3
- Suppression Ratio [45]: 39.28
- Expression Amount after Treatment with the Peptide [46]: 9.714
- Suppression Ratio [46]: 71.65
- Expression Amount after Treatment with the Peptide [47]: 3.429
- Suppression Ratio [47]: 150.9
- Expression Amount after Treatment with the Peptide [48]: 65.47
- Suppression Ratio [48]: 72.38
- Expression Amount after Treatment with the Peptide [49]: 2.5
- Suppression Ratio [49]: 42.45
- Expression Amount after Treatment with the Peptide (Suppressed Gene, Immune System Gene, Gene No. 11651, implantation-associated protein (DKFZp564K142)): 12.84

— US8173788B2, “Peptide having ability to activate cancer-related gene” (priority 2005, dated 2012)
